Measurements from patent US20100249064A1, “METHODS AND COMPOSITIONS FOR TREATING DISEASES AND CONDITIONS INVOLVING HIGHER MOLECULAR WEIGHT HYALURONAN” (University of Chicago, priority 2007, published 2010).

What was measured:
[1] = tested on: Human pulmonary EC; assay: TER, Example 5; assay type: cell-based; settings: MβCD or IM-7 antibody
Procedure: Measurement of TransEC Electrical Resistance (TER). EC were grown to confluence in polycarbonate wells containing evaporated gold microelectrodes, and TER measurements performed using an electrical cell-substrate impedance sensing system (Applied Biophysics, Troy, N.Y.) as previously described (Garcia et al., 2001). TER values from each microelectrode were pooled at discrete time points and plotted versus time as the mean±S.E.

[2] = tested on: Human pulmonary microvascular EC (HPMVEC); assay: EC electrical resistance (TER), HGF; assay type: cell-based; settings: 5 mM MβCD 30 min prior to 25 ng/ml HGF
Procedure: Measurement of EC Electrical Resistance—EC were grown to confluence in polycarbonate wells containing evaporated gold microelectrodes, and TER measurements were performed using an electrical cell-substrate impedance sensing system obtained from Applied Biophysics (Troy, N.Y.) as described (Garcia et al., 2001). TER values from each microelectrode were pooled at discrete time points and plotted versus time as the mean±S.E.

[3] = tested on: Rac1; assay: Rac1 activation assay, HGF; assay type: cell-based, human; settings: 5 mM MβCD prior to 25 ng/ml HGF
Procedure: Rac1 Activation Assay—Rac1 activity assays were performed as described (Ren et al., 1999) in human lung EC.

[4] = tested on: Human pulmonary artery EC; assay: Transendothelial electrical resistance (TER) of HA-treated EC monolayers, Example 1; assay type: cell-based; settings: 5 mM MβCD or 10 μg/ml anti-CD44 (IM-7) antibody, 100 nM High or Low MW HA
Procedure: Measurement of TransEC Electrical Resistance (TER)—EC were grown to confluence in polycarbonate wells containing evaporated gold microelectrodes. TER measurements were performed using an electrical cell-substrate impedance sensing system (Applied Biophysics, Troy, N.Y.) as described (Garcia et al., 2001). TER values from each microelectrode were pooled at discrete time points and plotted versus time as the mean±S.E.

[5] = tested on: Human pulmonary artery EC; assay: Cortical actin (phalloidin) staining and quantitation; assay type: cell-based; settings: MβCD one hour prior to 100 nM High MW HA for 30 min
Procedure: Immunofluorescence Microscopy and Cortical Actin Quantitation—Polymerized actin rearrangement was assessed first with Texas Red-conjugated phalloidin (Invitrogen (Molecular Probes), Eugene, Oreg.) and then analyzed using a Nikon Eclipse TE 300 microscope as described (Garcia et al., 2001). ImageQuant™ software (Amersham Biosciences Corp. (Piscataway, N.J.)) was used to analyze the computer recorded .tiff images. A standardized average grey value (SAGV) was generated for total phalloidin staining versus cortical phalloidin staining for each cell (Singleton et al., 2005). The following equation was used to calculate percent cortical actin staining: ((cortical actin SAGV×area) divided by (total actin SAGV×area))×100. At least ten cells per sample were analyzed. Experiments were performed in triplicate.
Immunofluorescence Microscopy. EC were serum-starved for one hour prior to the addition of 100 nM high MW HA. EC were then fixed in 4% paraformaldehyde, permeablized with ethanol and incubated with specific protein or interest primary antibody for 30 min followed by either FITC or Texas Red-conjugated secondary (Invitrogen (Molecular Probes), Eugene, Oreg.) and analyzed using a Nikon Eclipse TE 300 microscope as described (Garcia et. al., 2001).

[6] = biological target: T1, Tiam1 (human, UniProt Q13009 2-1591, limits assumed); assay: immunoprecipitation of dynamin 2 from CEM fractions of human EC, immunoblot with anti-Tiam1
T1 construct: Endogenous protein in CEM fractions; also called T-lymphoma invasion and metastasis gene 1
T1 sequence (Q13009 2-1591 limits assumed): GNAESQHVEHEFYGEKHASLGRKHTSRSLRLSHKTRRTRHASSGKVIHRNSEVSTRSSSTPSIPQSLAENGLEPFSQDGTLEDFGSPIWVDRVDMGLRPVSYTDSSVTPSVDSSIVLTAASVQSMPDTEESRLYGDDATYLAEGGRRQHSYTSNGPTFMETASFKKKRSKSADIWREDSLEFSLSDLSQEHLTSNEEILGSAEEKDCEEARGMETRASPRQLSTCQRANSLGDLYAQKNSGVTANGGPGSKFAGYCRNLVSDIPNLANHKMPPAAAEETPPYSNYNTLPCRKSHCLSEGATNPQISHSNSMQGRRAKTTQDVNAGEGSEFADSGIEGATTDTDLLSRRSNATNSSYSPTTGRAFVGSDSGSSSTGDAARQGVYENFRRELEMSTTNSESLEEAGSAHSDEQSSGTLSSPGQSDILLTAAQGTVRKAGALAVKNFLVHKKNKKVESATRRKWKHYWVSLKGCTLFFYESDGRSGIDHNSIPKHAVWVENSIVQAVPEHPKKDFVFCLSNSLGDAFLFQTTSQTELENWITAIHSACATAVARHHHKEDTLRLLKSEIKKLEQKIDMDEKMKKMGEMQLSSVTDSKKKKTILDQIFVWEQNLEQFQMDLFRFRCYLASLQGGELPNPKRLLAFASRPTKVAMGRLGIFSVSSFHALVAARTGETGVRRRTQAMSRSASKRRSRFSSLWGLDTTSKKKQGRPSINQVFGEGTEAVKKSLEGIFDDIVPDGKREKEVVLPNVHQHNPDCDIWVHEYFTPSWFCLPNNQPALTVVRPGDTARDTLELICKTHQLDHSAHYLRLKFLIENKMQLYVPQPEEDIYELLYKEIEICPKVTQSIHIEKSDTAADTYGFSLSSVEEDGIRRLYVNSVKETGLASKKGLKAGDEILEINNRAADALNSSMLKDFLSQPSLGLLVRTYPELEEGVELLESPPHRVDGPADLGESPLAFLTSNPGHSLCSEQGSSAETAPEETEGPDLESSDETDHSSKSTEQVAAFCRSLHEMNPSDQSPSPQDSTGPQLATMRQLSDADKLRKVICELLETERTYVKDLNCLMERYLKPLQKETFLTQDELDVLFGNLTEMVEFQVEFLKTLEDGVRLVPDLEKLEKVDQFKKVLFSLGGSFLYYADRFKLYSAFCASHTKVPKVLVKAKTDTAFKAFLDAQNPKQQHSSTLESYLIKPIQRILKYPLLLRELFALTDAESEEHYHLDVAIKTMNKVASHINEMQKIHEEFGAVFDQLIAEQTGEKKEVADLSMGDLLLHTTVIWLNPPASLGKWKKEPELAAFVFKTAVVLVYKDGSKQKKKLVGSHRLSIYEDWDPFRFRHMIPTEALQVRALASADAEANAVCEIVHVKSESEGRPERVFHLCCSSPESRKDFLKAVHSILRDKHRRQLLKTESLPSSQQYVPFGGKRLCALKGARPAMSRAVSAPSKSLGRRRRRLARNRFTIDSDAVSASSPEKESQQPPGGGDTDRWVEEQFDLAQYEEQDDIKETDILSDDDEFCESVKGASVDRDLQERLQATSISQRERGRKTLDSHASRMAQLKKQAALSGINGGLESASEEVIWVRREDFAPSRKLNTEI
Procedure: Immunoprecipitation and Immunoblotting—Cellular materials from treated or untreated HPMVEC were incubated with IP buffer (50 mM HEPES (pH 7.5), 150 mM NaCl, 20 mM MgCl₂, 1% Nonidet P-40 (NP-40), 0.4 mM Na₃VO₄, 40 mM NaF, 50 μM okadaic acid, 0.2 mM phenylmethylsulfonyl fluoride, 1:250 dilution of Calbiochem protease inhibitor mixture 3). Following immunoprecipitation with either anti-CD44 or anti-dynamin 2 IgG, the samples were subjected to SDS-PAGE in 4-15% polyacrylamide gels, transferred onto Immobilon™ membranes, and developed with specific primary and secondary antibodies. Enhanced chemiluminescence (Amersham Biosciences) was used to visualize immunoreactive bands. In some instances, standardized average grey values (S.A.G.V., processed from ImageQuant™ software (Amersham Biosciences)) were obtained for immunoreactive bands for quantification.
Role of Tiam1, cortactin and dynamin 2 in HGF/c-Met-mediated human EC barrier enhancement. Since CD44 appears to regulate HGF-induced EC barrier enhancement (FIG. 12), whether Tiam1, cortactin and/or dynamin 2 were involved in HGF-induced increases in EC barrier integrity was examined. […] Silencing CD44 (siRNA) expression attenuated the HGF-induced recruitment of these molecules to CEM (FIG. 13-B); silencing either Tiam1 or dynamin 2 expression abolished cortactin localization to CEM (FIG. 14-A and -B). […]

[7] = biological target: T2, HABP2, murine (mouse lung) (mouse, UniProt Q8K0D2 24-558, limits assumed); assay: anti-HABP2 immunoprecipitation of mouse lung homogenates, non-reducing SDS-PAGE, immunoblot
T2 construct: Immunoprecipitated with anti-HABP2 antibody from mouse lung homogenates; also called murine HABP2
T2 sequence (Q8K0D2 24-558 limits assumed): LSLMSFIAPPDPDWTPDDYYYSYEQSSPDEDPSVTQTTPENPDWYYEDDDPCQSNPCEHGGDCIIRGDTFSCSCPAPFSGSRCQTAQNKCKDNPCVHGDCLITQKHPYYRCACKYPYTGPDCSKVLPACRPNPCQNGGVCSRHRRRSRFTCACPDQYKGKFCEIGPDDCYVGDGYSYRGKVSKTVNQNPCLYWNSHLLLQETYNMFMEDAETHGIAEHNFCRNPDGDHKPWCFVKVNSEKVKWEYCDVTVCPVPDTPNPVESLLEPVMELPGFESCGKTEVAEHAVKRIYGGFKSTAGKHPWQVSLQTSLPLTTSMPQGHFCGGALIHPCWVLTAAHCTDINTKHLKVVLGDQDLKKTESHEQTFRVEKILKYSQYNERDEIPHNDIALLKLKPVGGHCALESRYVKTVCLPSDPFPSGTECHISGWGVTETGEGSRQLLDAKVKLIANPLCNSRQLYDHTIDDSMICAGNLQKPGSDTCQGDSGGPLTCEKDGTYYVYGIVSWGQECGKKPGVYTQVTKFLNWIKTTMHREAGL
Procedure: FIG. 24 Analysis of HABP2 and C1INH expression and complex formation in murine lungs with or without LPS treatment and effective silencing of HABP2 expression in murine lungs. Panel A—Male B6129N2 mice (8-10 weeks) were anesthetized with intraperitoneal ketamine (150 mg/kg) and acetylpromazine (15 mg/kg) before exposure of the right internal jugular vein via neck incision. LPS (2.5 mg/kg) or water (control) were instilled […]. The animals were allowed to recover for 24 hours after LPS before lung extraction. Extracted lungs were homogenized, N=6 samples per condition were pooled, run on SDS-PAGE and immunoblotted with anti-HABP2 (1), anti-C1INH (2) or anti-actin (3) antibody. Panel B—Homogenized lung samples as described in Panel A were immunoprecipitated with anti-HABP2 antibody, run on non-reducing SDS-PAGE and immunoblotted with either anti-HABP2 or anti-C1INH antibody. The upper arrow indicates an SDS-stable complex between HABP2 and C1INH. The lower arrow indicates the free (active) faun of HABP2. Panel C—Male B6129N2 mice (8-10 weeks) were anesthetized with intraperitoneal ketamine (150 mg/kg) and acetylpromazine (15 mg/kg) before exposure of the right internal jugular vein via neck incision. 10 mg/kg in vivo stable scramble siRNA (control) or HABP2 siRNA (Dharmacon) were instilled intravenously through the internal jugular vein. […]

[8] = tested on: Human pulmonary EC; assay: TER, HABP2/C1INH regulation of EC barrier function (Examples 3 and 6); assay type: cell-based; settings: purified C1INH; 1.0 μg/ml LPS, 100 nM HA, 10 μg/ml HABP2
Procedure: Measurement of transendothelial monolayer electrical resistance (TER). EC were grown to confluence in polycarbonate wells containing evaporated gold microelectrodes, and TER measurements performed using an electrical cell-substrate impedance sensing system obtained from Applied Biophysics (Troy, N.Y.) as previously described in detail (Garcia et al. 2001). TER values from each microelectrode were pooled at discrete time points and plotted versus time as the mean±S.E.
Determination of EC barrier function. Human pulmonary endothelial cells were grown to confluence in polycarbonate wells containing evaporated gold microelectrodes (surface area, 10-3 cm^2) in series with a large gold counter electrode (1 cm^2) connected to a phase-sensitive lock-in amplifier as described previously. Measurements of transendothelial electrical resistance (TER) were performed using an electrical cell-substrate impedance sensing system (ECIS) (Applied BioPhysics Inc.). Briefly, current was applied across the electrodes by a 4,000-Hz AC voltage source with amplitude of 1 V in series with a 1 MS/resistance to approximate a constant current source (˜1 μA). The in-phase and out-of-phase voltages between the electrodes were monitored in real time with the lock-in amplifier and subsequently converted to scalar measurements of transendothelial impedance, of which resistance was the primary focus. TER was monitored for 30 minutes to establish a baseline resistance (R0) which, for pulmonary endothelium, was typically between 8 to 12×10^3Ω (wells with R0<7×10^3Ω were rejected). As cells adhere and spread out on the microelectrode, TER increases (maximal at confluence), whereas cell retraction, rounding, or loss of adhesion was reflected by a decrease in TER. These measurements provide a highly sensitive biophysical assay that indicates the state of cell shape and focal adhesion. Values from each microelectrode were pooled at discrete time points and plotted versus time as the mean±SE of the mean (Garcia et al., 2001).

## methyl-β-cyclodextrin
[1]
  inhibition of effects of HA on TER: effects of HA on TER were inhibited
[2]
  inhibition of HGF-induced increases in EC barrier function (TER): attenuated HGF-induced increases in human EC barrier function
[3]
  inhibition of HGF-induced Rac1 activation: inhibited HGF-induced Rac1 activation
[4]
  inhibition of HA-induced changes in TER: abolished both HMW- and LMW-HA-induced changes in TER
[5]
  inhibition of HMW-HA induced cortical actin reorganization: HMW-HA induced cortical actin reorganization was inhibited

B1: dynamin 2 (other, human, UniProt P50570 1-870, looked up)
chain: MGNRGMEELIPLVNKLQDAFSSIGQSCHLDLPQIAVVGGQSAGKSSVLENFVGRDFLPRGSGIVTRRPLILQLIFSKTEHAEFLHCKSKKFTDFDEVRQEIEAETDRVTGTNKGISPVPINLRVYSPHVLNLTLIDLPGITKVPVGDQPPDIEYQIKDMILQFISRESSLILAVTPANMDLANSDALKLAKEVDPQGLRTIGVITKLDLMDEGTDARDVLENKLLPLRRGYIGVVNRSQKDIEGKKDIRAALAAERKFFLSHPAYRHMADRMGTPHLQKTLNQQLTNHIRESLPALRSKLQSQLLSLEKEVEEYKNFRPDDPTRKTKALLQMVQQFGVDFEKRIEGSGDQVDTLELSGGARINRIFHERFPFELVKMEFDEKDLRREISYAIKNIHGVRTGLFTPDLAFEAIVKKQVVKLKEPCLKCVDLVIQELINTVRQCTSKLSSYPRLREETERIVTTYIREREGRTKDQILLLIDIEQSYINTNHEDFIGFANAQQRSTQLNKKRAIPNQGEILVIRRGWLTINNISLMKGGSKEYWFVLTAESLSWYKDEEEKEKKYMLPLDNLKIRDVEKGFMSNKHVFAIFNTEQRNVYKDLRQIELACDSQEDVDSWKASFLRAGVYPEKDQAENEDGAQENTFSMDPQLERQVETIRNLVDSYVAIINKSIRDLMPKTIMHLMINNTKAFIHHELLAYLYSSADQSSLMEESADQAQRRDDMLRMYHALKEALNIIGDISTSTVSTPVPPPVDDTWLQSASSHSPTPQRRPVSSIHPPGRPPAVRGPTPGPPLIPVPVGAAASFSAPPIPSRPGPQSVFANSDLFPAPPQIPSRPVRIPPGIPPGVPSRRPPAAPSRPTIIRPAEPSLLD
notes: Immunoprecipitated with rabbit anti-dynamin 2 antibody from solubilized CEM fractions
[6]
  binding result: no binding

B2: C1INH, murine (mouse lung) (other, UniProt P97290 23-504, looked up)
chain: DPEATSHSTQDPLEAQAKSRESFPERDDSWSPPEPTVLPSTWPTTSVAITITNDTMGKVANESFSQHSQPAAQLPTDSPGQPPLNSSSQPSTASDLPTQATTEPFCPEPLAQCSDSDRDSSEAKLSEALTDFSVKLYHAFSATKMAKTNMAFSPFSIASLLTQVLLGAGDSTKSNLESILSYPKDFACVHQALKGFSSKGVTSVSQIFHSPDLAIRDTYVNASQSLYGSSPRVLGPDSAANLELINTWVAENTNHKIRKLLDSLPSDTCLVLLNAVYLSAKWKITFEPKKMMAPFFYKNSMIKVPMMSSVKYPVAQFDDHTLKAKVGQLQLSHNLSFVIVVPVFPKHQLKDVEKALNPTVFKAIMKKLELSKFLPTYLTMPHIKVKSSQDMLSVMEKLEFFDFTYDLNLCGLTEDPDLQVSAMKHETVLELTESGVEAAAASAISFGRSLPIFEVQRPFLFLLWDQQHRFPVFMGRVYDPRG
notes: Detected with anti-C1INH antibody in anti-HABP2 immunoprecipitates of mouse lung homogenates
[7]
  binding result: binds
[8]
  effect on EC barrier changes (TER) induced by LPS, LMW-HA, HABP2 and HMW-HA: inhibited the EC barrier disrupting effects of LPS, LMW-HA and HABP2 while enhancing the barrier protective effects of HMW-HA
